According to patent US20220056019A1, “FARNESOID X RECEPTOR AGONISTS AND USES THEREOF” (Metacrine, Inc., priority 2018, published 2022):

Target: T1, hFXR (Homo sapiens, UniProt Q96RI1)
T1 construct: expressed in transfected cells; host or cells: CV-1 cells
T1 sequence (Q96RI1 1-486): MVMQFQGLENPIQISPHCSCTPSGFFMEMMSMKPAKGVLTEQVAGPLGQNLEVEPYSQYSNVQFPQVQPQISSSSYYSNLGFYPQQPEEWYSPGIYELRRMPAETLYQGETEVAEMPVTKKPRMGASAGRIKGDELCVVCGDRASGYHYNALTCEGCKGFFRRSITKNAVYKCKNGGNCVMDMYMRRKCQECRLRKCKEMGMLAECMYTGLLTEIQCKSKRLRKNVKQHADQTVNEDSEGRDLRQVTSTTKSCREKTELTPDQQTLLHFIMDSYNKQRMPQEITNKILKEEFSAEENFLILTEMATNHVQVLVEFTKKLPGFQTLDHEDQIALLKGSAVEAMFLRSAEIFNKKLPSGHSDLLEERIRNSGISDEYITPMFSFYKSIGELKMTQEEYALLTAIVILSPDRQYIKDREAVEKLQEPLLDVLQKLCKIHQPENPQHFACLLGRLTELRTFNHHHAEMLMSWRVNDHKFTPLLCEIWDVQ
T1 sequence (P19793 1-462 partner): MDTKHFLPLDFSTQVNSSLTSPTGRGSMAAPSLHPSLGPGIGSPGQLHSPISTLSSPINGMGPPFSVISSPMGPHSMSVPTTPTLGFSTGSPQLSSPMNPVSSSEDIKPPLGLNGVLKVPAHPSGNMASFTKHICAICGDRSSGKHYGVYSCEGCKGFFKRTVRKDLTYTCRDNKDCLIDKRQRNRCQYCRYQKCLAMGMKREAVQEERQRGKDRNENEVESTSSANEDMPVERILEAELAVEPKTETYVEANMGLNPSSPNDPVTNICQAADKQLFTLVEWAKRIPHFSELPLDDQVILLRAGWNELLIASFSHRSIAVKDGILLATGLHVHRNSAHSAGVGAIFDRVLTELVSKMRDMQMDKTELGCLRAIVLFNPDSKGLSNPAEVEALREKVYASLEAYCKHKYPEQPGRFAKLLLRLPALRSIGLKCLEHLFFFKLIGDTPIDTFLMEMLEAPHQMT
Experiment: In Vitro FXR Assay (TK): TK-ECRE-luc reporter in transfected CV-1 cells
Assay type: cell-based
Conditions: 18 hrs incubation, luminescence
Summary of the method: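 CV-1 cells in DMEM with 10% charcoal-stripped FBS were transiently co-transfected with hFXR, hRXR, TK-ECRE-luc reporter and pCMX-YFP plasmids over 18 h at 37 °C. Compounds serially diluted in DMSO were added for 18 h; cells were then lysed and luciferase luminescence measured.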

| Compound | EC50 |
| --- | --- |
| COc1ccc(C23CCC(CN(c4cc(-c5cnc(C(C)C)s5)ccn4)C(=O)[C@H]4CC[C@H](OC(=O)N5CC(O)C5)CC4)(CC2)CC3)cc1C [Compound 4.21, 4-((4-(2-Isopropylthiazol-5-yl)pyridin-2-yl)((4-(4-methoxy-3-methylphenyl)bicyclo[2.2.2]octan-1-yl)methyl)carbamoyl) cyclohexyl 3-hydroxyazetidine-trans-1-carboxylate] | ≤ 0.05 µM |
| COc1ccc(C23CCC(CN(c4cc(-c5cnn(C(C)C)c5)c(F)cn4)C(=O)[C@H]4CC[C@H](OC(=O)N5CC(C#N)C5)CC4)(CC2)CC3)cc1C [Compound 25.12, 4-((5-Fluoro-4-(1-isopropyl-1H-pyrazol-4-yl)pyridin-2-yl)((4-(4-methoxy-3-methylphenyl)bicyclo[2.2.2]octan-1-yl)methyl)carbamoyl)cyclohexyl trans-3-cyanoazetidine-1-carboxylate] | ≤ 0.05 µM |
| COc1ccc(C23CCC(CN(c4cc(-c5cnn(C(C)C)c5)ncn4)C(=O)[C@H]4CC[C@H](OC(=O)N5CC(CS(C)(=O)=O)C5)CC4)(CC2)CC3)cc1C [Compound 23.21, 4-((6-(1-Isopropyl-1H-pyrazol-4-yl)pyrimidin-4-yl)((4-(4-methoxy-3-methylphenyl)bicyclo[2.2.2]octan-1-yl)methyl)carbamoyl)(trans-cyclohexyl) 3-((methylsulfonyl)meth-yl)azetidine-1-carboxylate] | ≤ 0.05 µM |
| COc1ccc(C23CCC(CN(c4cc(-c5cnn(C(C)C)c5)ccn4)C(=O)[C@H]4CC[C@H](OC(=O)N5CC(O)C5)CC4)(CC2)CC3)cc1C [Compound 4, 4-((4-(1-Isopropyl-1H-pyrazol-4-yl)pyridin-2-yl)((4-(4-methoxy-3-methylphenyl)bicyclo[2.2.2]octan-1-yl)methyl)carbamoyl)cyclohexyl 3-hydroxyazetidine-trans-1-carboxylate] | ≤ 0.05 µM |
| COc1ccc([C@H]2CC[C@H](CN(c3cc(-c4cnn(C(C)C)c4)ccn3)C(=O)[C@H]3CC[C@H](OC(=O)NC[C@H](F)CF)CC3)CC2)cc1C [Compound 2.33, trans-4-((4-(1-Isopropyl-1H-pyrazol-4-yl)pyridin-2-yl)(((trans)-4-(4-methoxy-3-methylphenyl)cyclohexyl)methyl)carbamoyl) cyclohexyl((S)-2,3-difluoropropyl) carbamate] | ≤ 0.05 µM |
| COc1ccc([C@H]2CC[C@H](CN(c3cccc(-c4cnn(C(C)C)c4)c3)C(=O)[C@H]3CC[C@H](OCCCO)CC3)CC2)cc1C [Compound 16, trans-4-(3-Hydroxypropoxy)-N-(3-(1-isopropyl-1H-pyrazol-4-yl)phenyl)-N-((trans-4-(4-methoxy-3-methylphenyl)cyclohexyl)methyl)cyclohexanecarboxamide] | ≤ 0.05 µM |
| COc1ccc(C23CCC(CN(c4cc(-c5nc(C(C)C)no5)ccn4)C(=O)[C@H]4CC[C@H](OC(=O)N5CC(O)C5)CC4)(CC2)CC3)cc1C [Compound 26.13, 4-((4-(3-isopropyl-1,2,4-oxadiazol-5-yl)pyridin-2-yl)((4-(4-methoxy-3-methylphenyl)bicyclo[2.2.2]octan-1-yl)methyl)carbamoyl)cyclohexyl trans-3-hydroxyazetidine-1-carboxylate] | ≤ 0.05 µM |
| COc1ccc(C23CCC(CN(c4ccc(F)c(-c5cnn(C(C)C)c5)c4F)C(=O)[C@H]4CC[C@H](OC(=O)N5CC(O)C5)CC4)(CC2)CC3)cc1C [Compound 25.15, 4-((2,4-Difluoro-3-(1-isopropyl-1H-pyrazol-4-yl)phenyl)((4-(4-methoxy-3-methylphenyl)bicyclo[2.2.2]octan-1-yl)methyl)carbamoyl)cyclohexyl trans-3-hydroxyazetidine-1-carboxylate] | ≤ 0.05 µM |
| COC(=O)N[C@H]1CC[C@H](C(=O)N(C[C@H]2CC[C@H](c3ccc(OC)c(C)c3)CC2)c2cccc(-c3cnn(C(C)C)c3)c2)CC1 [Compound 6, Methyl (trans-4-((3-(1-isopropyl-1H-pyrazol-4-yl)phenyl)((trans-4-(4-methoxy-3-methylphenyl)cyclohexyl)methyl)carbamoyl)cyclohexyl)carbamate] | ≤ 0.05 µM |
| COc1ccc([C@H]2CC[C@H](CN(c3cc(-c4cnn(C(C)C)c4)ccn3)C(=O)[C@H]3CC[C@H](OC(=O)NCC(C)F)CC3)CC2)cc1C (stereo partly drawn) [Compound 2.28, trans-4-((4-(1-Isopropyl-1H-pyrazol-4-yl)pyridin-2-yl)(((trans)-4-(4-methoxy-3-methylphenyl)cyclohexyl)methyl)carbamoyl) cyclohexyl(2-fluoropropyl)carbamate] | ≤ 0.05 µM |
| COc1ccc(C23CCC(CN(c4cc(-c5ccn(C(C)C)n5)ccn4)C(=O)[C@H]4CC[C@H](OC(=O)N5CC(O)C5)CC4)(CC2)CC3)cc1C [Compound 23.16, 4-((4-(1-Isopropyl-1H-pyrazol-3-yl)pyridin-2-yl)((4-(4-methoxy-3-methylphenyl)bicyclo[2.2.2]octan-1-yl)methyl)carbamoyl)cyclo-hexyl trans-3-hydroxyazetidine-1-carboxylate] | ≤ 0.05 µM |
| COCC(=O)N[C@H]1CC[C@H](C(=O)N(CC23CCC(c4ccc(OC)c(C)c4)(CC2)CC3)c2cc(-c3cnc(C(C)C)s3)ccn2)CC1 [Compound 9.05, (trans)-N-(4-(2-Isopropylthiazol-5-yl)pyridin-2-yl)-N-((4-(4-methoxy-3-methylphenyl)bicyclo[2.2.2]octan-1-yl)methyl)-4-(2-methoxyacetamido)cyclohexanecar-boxamide] | ≤ 0.05 µM |
| COc1ccc(C23CCC(CN(c4cc(-c5cnn(C(C)C)c5)ccn4)C(=O)[C@H]4CC[C@H](OC(=O)N5CC(C)C5)CC4)(CC2)CC3)cc1C [Compound 4.53, 4-((4-(1-Isopropyl-1H-pyrazol-4-yl)pyridin-2-yl) ((4-(4-methoxy-3-methylphenyl)bicyclo [2.2.2]octan-1-yl)methyl)carbamoyl)cyclohexyl trans-3-methylazetidine-1-carboxylate] | ≤ 0.05 µM |
| COc1ccc(C23CCC(CN(c4cc(-c5cnn(C(C)C)c5)ccn4)C(=O)[C@H]4CC[C@H](OC(=O)N5CC(CO)C5)CC4)(CC2)CC3)cc1C [Compound 4.09, 4-((4-(1-Isopropyl-1H-pyrazol-4-yl)pyridin-2-yl)((4-(4-methoxy-3-methylphenyl)bicyclo [2.2.2]octan-1-yl)methyl)carbamoyl)cyclohexyl 3-(hydroxymethyl) azetidine-trans-1-carboxylate] | ≤ 0.05 µM |
| CC(C)c1ccc(C23CCC(CN(c4cc(-c5cnn(C(C)C)c5)ccn4)C(=O)[C@H]4CC[C@H](OC(=O)N5CC(O)C5)CC4)(CC2)CC3)cc1 [Compound 26.10, 4-((4-(1-Isopropyl-1H-pyrazol-4-yl)pyridin-2-yl)((4-(4-isopropylphenyl)bicyclo[2.2.2]octan-1-yl)methyl)carbamoyl)cyclohexyl trans-3-hydroxyazetidine-1-carboxylate] | ≤ 0.05 µM |
| CCC(=O)NC[C@H]1CC[C@H](C(=O)N(C[C@H]2CC[C@H](c3ccc(OC)c(C)c3)CC2)c2cccc(-c3cnn(C(C)C)c3)c2)CC1 [Compound 12.01, (trans)-N-(3-(1-Isopropyl-1H-pyrazol-4-yl)phenyl)-N-(((trans)-4-(4-methoxy-3-methylphenyl)cyclohexyl)methyl)-4-(propionamidomethyl)cyclohexane-carboxamide] | 0.05 to 1 µM |
| CCc1nc(-c2ccnc(N(C[C@H]3CC[C@H](c4ccc(OC)c(C)c4)CC3)C(=O)[C@H]3CC[C@H](OC(=O)N4CC(O)C4)CC3)c2)co1 [Compound 2.36, trans-4-((4-(2-Ethyloxazol-4-yl)pyridin-2-yl)((trans-4-(4-methoxy-3-methylphenyl)cyclohexyl)methyl)carbamoyl)cyclohexyl 3-hydroxyazetidine-1-carboxylate] | ≤ 0.05 µM |
| COc1ccc(C23CCC(CN(c4cc(-c5coc(C(C)C)n5)ccn4)C(=O)[C@H]4CC[C@H](OC(=O)N5CC(S(C)(=O)=O)C5)CC4)(CC2)CC3)cc1C [Compound 23.03, 4-((4-(2-Isopropyloxazol-4-yl)pyridin-2-yl)((4-(4-methoxy-3-methylphenyl)bicyclo[2.2.2]octan-1-yl)methyl)carbamoyl)(trans-cyclohexyl) 3-(methylsulfonyl)azetidine-1-carboxylate] | ≤ 0.05 µM |
| COc1ncc(C23CCC(CN(c4cc(-c5cnn(C(C)C)c5)ccn4)C(=O)[C@H]4CC[C@H](OC(=O)N5CC(O)C5)CC4)(CC2)CC3)cc1C [Compound 26, 4-((4-(1-Isopropyl-1H-pyrazol-4-yl)pyridin-2-yl)((4-(6-methoxy-5-methylpyridin-3-yl)bicyclo[2.2.2]octan-1-yl)methyl)carbamoyl)cyclohexyl trans-3-hydroxyazetidine-1-carboxylate] | ≤ 0.05 µM |
